Key:
human TRPA1 = target: T1, human TRPA1 (Homo sapiens, UniProt O75762); experiment: 45Calcium uptake assay: inhibition of AITC induced cellular uptake of radioactive calcium, human TRPA1 expressing CHO cells; format: cell-based; conditions: AITC 30 μM; for inhibition at 1 µM: 1.0 μM compound, read-out: human TRPA1 Percentage inhibition at 1.0 μM; for inhibition at 10 µM: 10.0 μM compound, read-out: human TRPA1 Percentage inhibition at 10.0 μM; for IC50: class symbols
T1 construct: expressed in transfected cells; host or cells: CHO cells (G-418 selection)
T1 sequence (O75762 whole entry): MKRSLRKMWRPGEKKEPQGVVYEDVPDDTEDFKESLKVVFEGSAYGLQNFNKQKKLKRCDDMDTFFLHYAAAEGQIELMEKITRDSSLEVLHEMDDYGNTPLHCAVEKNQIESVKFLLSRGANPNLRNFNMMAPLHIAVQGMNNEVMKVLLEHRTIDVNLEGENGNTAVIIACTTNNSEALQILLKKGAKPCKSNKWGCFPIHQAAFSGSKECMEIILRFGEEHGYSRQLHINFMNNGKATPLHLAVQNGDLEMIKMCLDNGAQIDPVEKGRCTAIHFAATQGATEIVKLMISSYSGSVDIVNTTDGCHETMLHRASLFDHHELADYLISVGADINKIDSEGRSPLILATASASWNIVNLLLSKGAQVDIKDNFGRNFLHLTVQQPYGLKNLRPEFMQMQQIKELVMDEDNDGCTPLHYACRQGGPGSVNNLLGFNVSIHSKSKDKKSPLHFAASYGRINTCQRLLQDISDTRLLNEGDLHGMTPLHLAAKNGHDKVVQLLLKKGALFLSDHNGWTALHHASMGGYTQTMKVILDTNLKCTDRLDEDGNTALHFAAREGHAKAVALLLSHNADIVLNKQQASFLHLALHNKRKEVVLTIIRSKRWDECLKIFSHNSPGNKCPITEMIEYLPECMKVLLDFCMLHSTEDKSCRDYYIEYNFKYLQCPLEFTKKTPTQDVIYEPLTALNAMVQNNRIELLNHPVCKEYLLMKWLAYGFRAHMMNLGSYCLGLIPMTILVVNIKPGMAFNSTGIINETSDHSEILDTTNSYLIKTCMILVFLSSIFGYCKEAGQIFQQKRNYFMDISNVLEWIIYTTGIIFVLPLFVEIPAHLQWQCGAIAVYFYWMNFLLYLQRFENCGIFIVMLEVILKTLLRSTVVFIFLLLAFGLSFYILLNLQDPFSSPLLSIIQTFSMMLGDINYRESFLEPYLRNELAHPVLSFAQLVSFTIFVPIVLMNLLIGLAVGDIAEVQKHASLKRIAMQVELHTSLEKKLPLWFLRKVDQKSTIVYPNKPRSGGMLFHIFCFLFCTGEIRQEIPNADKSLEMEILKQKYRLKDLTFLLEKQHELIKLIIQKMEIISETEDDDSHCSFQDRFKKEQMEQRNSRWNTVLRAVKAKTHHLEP
Description: The illustrative examples of the present invention are screened for TRPA1 activity according to a modified procedure described in (a) Tóth, A. et al. Life Sciences, 2003, 73, 487-498. (b) McNamara C, R. et al, Proc. Natl. Acad. Sci. U.S.A., 2007, 104, 13525-13530. The screening of the compounds can be carried out by other methods and procedures known to persons skilled in the art.
(§1) Screening for TRPA1 Antagonist Using the ^45Calcium Uptake Assay:
(§2) The inhibition of TRPA1 receptor activation was measured as inhibition of allyl isothiocyanate (AITC) induced cellular uptake of radioactive calcium.
Test compounds were dissolved in 100% DMSO to prepare 10 mM stock and then diluted using plain medium with 0.1% BSA and 1.8 mM CaCl2 to get the desired concentration. The final concentration of DMSO in the reaction was 0.5% (v/v). Human TRPA1 expressing CHO cells were grown in F-12 DMEM medium with 10% FBS, 1% penicillin-streptomycin solution, and 400 μg/ml of G-418. Rat TRPA1 expressing CHO cells were grown in F-12 DMEM medium with 10% FBS, 1% penicillin-streptomycin solution, and 400 μg/ml of Zeocin. Cells were seeded 24 h prior to the assay in 96 well plates so as to get ˜50,000 cells per well on the day of experiment. Cells were treated with the test compounds for 10 minutes followed by the addition of AITC at a final concentration of 30 μM (for human TRPA1) and/or 10 μM (for rat TRPA1) and 5 μCi/ml ^45Ca^+2 for 3 minutes. Cells were washed and lysed using a buffer containing 1% Triton X-100, 0.1% deoxycholate and 0.1% SDS. Radioactivity in the lysate was measured in a Packard TopCount after addition of liquid scintillant. (Toth et al, Life Sciences (2003) 73, 487-498; McNamara C R et al, Proceedings of the National Academy of Sciences, (2007) 104, 13525-13530).
(§3) Concentration response curves were plotted as a % of maximal response obtained in the absence of test antagonist. IC50 values can be calculated from concentration response curve by nonlinear regression analysis using GraphPad PRISM software.

rat TRPA1 = target: T2, rat TRPA1 (Rattus norvegicus, UniProt Q6RI86); experiment: 45Calcium uptake assay: inhibition of AITC induced cellular uptake of radioactive calcium, rat TRPA1 expressing CHO cells; format: cell-based; conditions: AITC 10 μM; for inhibition at 10 µM: 10.0 μM compound, read-out: rat TRPA1 Percentage inhibition at 10.0 μM; for inhibition at 1 µM: read-out: rat TRPA1 Percentage inhibition; for IC50: class symbols
T2 construct: expressed in transfected cells; host or cells: CHO cells (Zeocin selection)
T2 sequence (Q6RI86 whole entry): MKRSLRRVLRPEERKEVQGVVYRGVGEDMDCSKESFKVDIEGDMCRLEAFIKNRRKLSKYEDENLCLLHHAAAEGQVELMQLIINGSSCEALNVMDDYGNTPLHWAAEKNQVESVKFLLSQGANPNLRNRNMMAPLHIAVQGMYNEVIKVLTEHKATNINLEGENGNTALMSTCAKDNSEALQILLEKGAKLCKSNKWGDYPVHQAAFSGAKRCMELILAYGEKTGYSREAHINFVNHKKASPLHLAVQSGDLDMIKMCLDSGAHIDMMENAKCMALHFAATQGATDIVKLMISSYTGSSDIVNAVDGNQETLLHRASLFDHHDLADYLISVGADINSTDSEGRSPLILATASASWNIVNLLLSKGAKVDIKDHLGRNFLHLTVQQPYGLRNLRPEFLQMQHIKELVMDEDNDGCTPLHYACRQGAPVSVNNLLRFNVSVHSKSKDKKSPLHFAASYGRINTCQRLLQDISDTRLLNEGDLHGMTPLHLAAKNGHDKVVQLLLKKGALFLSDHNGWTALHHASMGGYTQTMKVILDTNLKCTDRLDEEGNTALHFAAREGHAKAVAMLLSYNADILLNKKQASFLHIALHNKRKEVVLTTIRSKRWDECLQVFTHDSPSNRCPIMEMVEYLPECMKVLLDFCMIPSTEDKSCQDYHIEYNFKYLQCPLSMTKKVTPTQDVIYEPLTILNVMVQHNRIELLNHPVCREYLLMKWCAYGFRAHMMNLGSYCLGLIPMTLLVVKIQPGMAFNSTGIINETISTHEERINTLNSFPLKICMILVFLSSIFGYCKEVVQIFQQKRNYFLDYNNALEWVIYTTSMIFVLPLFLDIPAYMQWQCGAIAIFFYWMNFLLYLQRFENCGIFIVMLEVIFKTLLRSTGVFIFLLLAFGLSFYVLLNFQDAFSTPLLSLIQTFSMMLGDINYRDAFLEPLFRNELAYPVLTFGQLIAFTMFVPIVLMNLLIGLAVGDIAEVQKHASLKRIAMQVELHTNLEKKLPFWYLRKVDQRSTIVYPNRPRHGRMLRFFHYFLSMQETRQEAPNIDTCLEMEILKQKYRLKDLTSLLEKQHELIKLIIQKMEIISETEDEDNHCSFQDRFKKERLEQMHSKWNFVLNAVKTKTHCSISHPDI
Description: as §1, §2
Test compounds were dissolved in 100% DMSO to prepare 10 mM stock and then diluted using plain medium with 0.1% BSA and 1.8 mM CaCl2 to get the desired concentration. The final concentration of DMSO in the reaction was 0.5% (v/v). […] Rat TRPA1 expressing CHO cells were grown in F-12 DMEM medium with 10% FBS, 1% penicillin-streptomycin solution, and 400 μg/ml of Zeocin. […] Cells were treated with the test compounds for 10 minutes followed by the addition of AITC at a final concentration of 30 μM (for human TRPA1) and/or 10 μM (for rat TRPA1) and 5 μCi/ml ^45Ca^+2 for 3 minutes. Cells were washed and lysed using a buffer containing 1% Triton X-100, 0.1% deoxycholate and 0.1% SDS. Radioactivity in the lysate was measured in a Packard TopCount after addition of liquid scintillant.
as §3

| Structure (SMILES) | inhibition at 1 µM (human TRPA1) [%] | inhibition at 10 µM (human TRPA1) [%] | IC50 (human TRPA1) [nM] | inhibition at 10 µM (rat TRPA1) [%] | inhibition at 1 µM (rat TRPA1) [%] | IC50 (rat TRPA1) [nM] |
| --- | --- | --- | --- | --- | --- | --- |
| Cn1c(=O)c2c(CC(=O)Nc3nc(-c4ccc(OCC(F)(F)F)c(Cl)c4)cs3)coc2n(C)c1=O [Example 31, N1-{4-[3-Chloro-4-(2,2,2-trifluoroethoxy)phenyl]-1,3-thiazol-2-yl}2-(1,3-dimethyl-2,4-dioxo-1,2,3,4-tetrahydrofuro[2,3-d]pyrimidin-5-yl)acetamide] | 98.3 | 99.8 | < 50 | 100 | 96.8 | 50 to 100 |
| Cn1c(=O)c2c(CC(=O)Nc3nc(-c4ccc(OCC(F)(F)F)c(Br)c4)cs3)coc2n(C)c1=O [Example 32, N1-{4-[3-Bromo-4-(2,2,2-trifluoroethoxy)phenyl]-1,3-thiazol-2-yl}2-(1,3-dimethyl-2,4-dioxo-1,2,3,4-tetrahydrofuro[2,3-d]pyrimidin-5-yl)acetamide] | 99.8 | 99.5 | < 50 | 100 | 85.2 | < 50 |
| Cn1c(=O)c2c(CC(=O)Nc3nc(-c4ccc(Cl)c(Cl)c4Cl)cs3)coc2n(C)c1=O [Example 34, N1-[4-(2,3,4-Trichlorophenyl)-1,3-thiazol-2-yl]-2-(1,3-dimethyl-2,4-dioxo-1,2,3,4-tetrahydrofuro[2,3-d]pyrimidin-5-yl)acetamide] | 97 | 99.7 | < 50 | 99.3 | 91 | 50 to 100 |
| Cn1c(=O)c2c(CC(=O)Nc3nc(-c4ccc(F)c(C(F)(F)F)c4F)cs3)coc2n(C)c1=O [Example 35, N1-{4-[2,4-Difluoro-3-(trifluoromethyl)phenyl]-1,3-thiazol-2-yl}2-(1,3-dimethyl-2,4-dioxo-1,2,3,4-tetrahydrofuro[2,3-d]pyrimidin-5-yl)acetamide] | 99.8 | 98.4 | < 50 | – | – | < 50 |
| Cn1c(=O)c2c(CC(=O)Nc3nc(-c4cc(F)c(C(F)(F)F)c(F)c4)cs3)coc2n(C)c1=O [Example 36, N1-{4-[3,5-Difluoro-4-(trifluoromethyl)phenyl]-1,3-thiazol-2-yl}-2-(1,3-dimethyl-2,4-dioxo-1,2,3,4-tetrahydrofuro[2,3-d]pyrimidin-5-yl)acetamide] | 99.7 | 99.6 | < 50 | 100 | 100 | 50 to 100 |
| Cn1c(=O)c2c(CC(=O)Nc3nc(-c4cc(F)c(OC(F)F)c(F)c4)cs3)coc2n(C)c1=O [Example 37, N1-{4-[3,5-Difluoro-4-(difluoromethoxy)phenyl]-1,3-thiazol-2-yl}-2-(1,3-dimethyl-2,4-dioxo-1,2,3,4-tetrahydrofuro[2,3-d]pyrimidin-5-yl)acetamide] | 99.9 | 99.7 | < 50 | 100 | 100 | 50 to 100 |
| Cn1c(=O)c2c(CC(=O)Nc3nc(-c4cc(Cl)c(OC(F)F)c(Cl)c4)cs3)coc2n(C)c1=O [Example 38, N1-{4-[3,5-Dichloro-4-(difluoromethoxy)phenyl]-1,3-thiazol-2-yl}-2-(1,3-dimethyl-2,4-dioxo-1,2,3,4-tetrahydrofuro[2,3-d]pyrimidin-5-yl)acetamide] | 99.8 | 99.9 | < 50 | 100 | 67 | > 100 |
| Cn1c(=O)c2c(CC(=O)Nc3nc(-c4cc(F)c(OCC5CC5)c(F)c4)cs3)coc2n(C)c1=O [Example 39, N1-{4-[4-(Cyclopropylmethoxy)-3,5-difluorophenyl]-1,3-thiazol-2-yl]-2-(1,3-dimethyl-2,4-dioxo-1,2,3,4-tetrahydrofuro[2,3-d]pyrimidin-5-yl)acetamide] | 94.2 | 98.7 | < 50 | – | – | > 100 |

Reference: patent US20120178766A1, “FUROPYRIMIDINEDIONE DERIVATIVES AS TRPAI MODULATORS” (priority 2009, published 2012)
